Laboratory results: patent publication US9107413B2, “Pesticidal compositions and processes related thereto” (priority 2011, dated 2015)
Like-named read-outs stand apart in the source and are kept apart here.

How the values were obtained:
Type in all cases: in vivo
CEW (Helicoverpa zea) = assay: Bioassay on corn earworm (CEW), 128-well diet tray assay; details: 168 h, read-out: % Mortality CEW 50 μg/cm^2
Protocol: (§1) Certain molecules disclosed in this document were tested against BAW and CEW using procedures described in the following examples. In the reporting of the results, the “BAW & CEW Rating Table” was used (See Table Section).
Bioassays on CEW (Helicoverpa zea)
Bioassays on CEW were conducted using a 128-well diet tray assay. […] Trays were covered with a clear self-adhesive cover and held at 25° C., 14:10 light-dark for five to seven days. Percent mortality was recorded for the larvae in each well; activity in the eight wells was then averaged. The results are indicated in the table entitled “Table 5: Biological Results” (See Table Section).

GPA (Myzus persicae) = assay: Bioassay on green peach aphid (GPA), foliar spray on cabbage seedlings; details: 72 h, read-out: % Mortality GPA 200 ppm
Protocol: Certain molecules disclosed in this document were tested against GPA using procedures described in the following example. In the reporting of the results, the “GPA Rating Table” was used (See Table Section).
Cabbage seedlings grown in 3-inch pots, with 2-3 small (3-5 cm) true leaves, were used as test substrate. The seedlings were infested with 20-50 GPA (wingless adult and nymph stages) one day prior to chemical application. Four pots with individual seedlings were used for each treatment. Test compounds (2 mg) were dissolved in 2 mL of acetone/methanol (1:1) solvent, forming stock solutions of 1000 ppm test compound. […] A hand-held aspirator-type sprayer was used for spraying a solution to both sides of […] leaves until runoff. Reference plants (solvent check) were sprayed with the diluent only containing 20% by volume of acetone/methanol (1:1) solvent. Treated plants were held in a holding room for three days at approximately 25° C. and ambient relative humidity (RH) prior to grading. Evaluation was conducted by counting the number of live aphids per plant under a microscope. […] Corrected % Control=100*(X−Y)/X • where • X=No. of live aphids on solvent check plants and • Y=No. of live aphids on treated plants
The results are indicated in the table entitled “Table 5: Biological Results” (See Table Section).

BAW (Spodoptera exigua) = assay: Bioassay on beet armyworm (BAW), 128-well diet tray assay; details: 168 h, read-out: % Mortality BAW 50 μg/cm^2
Protocol: as §1
Bioassays on BAW (Spodoptera exigua)
Bioassays on BAW were conducted using a 128-well diet tray assay. […] Trays were covered with a clear self-adhesive cover and held at 25° C., 14:10 light-dark for five to seven days. Percent mortality was recorded for the larvae in each well; activity in the eight wells was then averaged. The results are indicated in the table entitled “Table 5: Biological Results” (See Table Section).

[1] = 50 μg/cm^2 on artificial diet, second instar larvae, five to seven days, 25° C.
[2] = 200 ppm foliar spray on cabbage seedlings, three days, Abbott corrected % control

Structure (SMILES)	mortality at 50 µg/cm2 (CEW (Helicoverpa zea)) [%]	mortality at 200 ppm (GPA (Myzus persicae); foliar) [%]	mortality at 50 µg/cm2 (BAW (Spodoptera exigua)) [%]	mortality at 50 µg/cm2 (CEW (Helicoverpa zea); [1]) [%]	mortality at 50 µg/cm2 (BAW (Spodoptera exigua); [1]) [%]	mortality at 200 ppm (GPA (Myzus persicae); [2]) [%]
Cc1cccc(C)c1/N=C(/N/N=C/c1ccc(-c2ncn(-c3ccc(OC(F)(F)F)cc3)n2)cc1)SCOC(=O)CNC(=O)OCc1ccccc1 [Compound 23C]	50 to 100	0	50 to 100	–	–	–
FC(F)Oc1ccccc1N1CCCS/C1=N\N=C\c1ccc(-c2ncn(-c3ccc(OC(F)(F)F)cc3)n2)cc1 [Compound 200C]	–	–	–	50 to 100	50 to 100	–
CC1CCS/C(=N\N=C\c2ccc(-c3ncn(-c4ccc(OC(F)(F)F)cc4)n3)cc2)N1c1ccccc1OC(C)(F)F (stereo not shown) [Compound 229C]	–	–	–	50 to 100	50 to 100	–
C/C(=N\N=C1/SCC(=O)N1c1ccccc1C(C)C)c1ccc(-c2ncn(-c3ccc(OC(F)(F)F)cc3)n2)cc1 [Compound 122C]	–	–	–	50 to 100	50 to 100	–
COc1cc(C)c(/N=C(/N/N=C/c2ccc(-c3ncn(-c4ccc(OC(F)(F)F)cc4)n3)cc2)SCOC(=O)CNC(=O)OCc2ccccc2)c(C)c1 [Compound 28C]	50 to 100	0 to 80	50 to 100	–	–	–
Cc1cccc(C)c1/N=C(/N/N=C/c1ccc(-c2ncn(-c3ccc(OC(F)(F)F)cc3)n2)cc1)SCC#C[Si](C)(C)C [Compound 9C]	50 to 100	0	50 to 100	–	–	–
COc1cc(C)c(/N=C(\N/N=C/c2ccc(-c3ncn(-c4ccc(C(F)(F)F)cc4)n3)cc2)SCOC(=O)CNC(=O)OCc2ccccc2)c(C)c1 [Compound 45C]	50 to 100	–	50 to 100	–	–	–
CC(C)c1ccccc1N1C(=O)CS/C1=N\N=C\c1ccc(-c2ncn(-c3ccc(OC(F)(F)F)cc3)n2)cc1 [Compound 73C]	–	–	–	50 to 100	50 to 100	0 to 80
Cc1cccc(Cl)c1N1/C(=N/N=C/c2ccc(-c3ncn(-c4ccc(OC(F)(F)F)cc4)n3)cc2)SCCC1C (stereo not shown) [Compound 227C]	–	–	–	50 to 100	50 to 100	–
COc1cc(C)c(/N=C(/N/N=C/c2ccc(-c3ncn(-c4ccc(OC(F)(F)F)cc4)n3)cc2)SCC(=O)N2CCNCC2)c(C)c1 [Compound 65C]	–	–	–	50 to 100	50 to 100	0 to 80
